Assay [1] concerns HEK293. Nature of the assay: cells. Type of assay: functional, cell-based. The note with it: Homo sapiens.
In assay [2] the test system is HEK293. Nature of the assay: cells. The class given is functional, cell-based. The note with it: Homo sapiens. The source holds these as a separate data set.
Assay [3] concerns HEK293. Nature of the assay: NOD2 signaling inhibitors in MDP-stimulated cells, cell-based, uHTS, luminescence (AID 2001). The class given is functional. The settings on record: Homo sapiens.
Assay [4] deals with T1, Nucleotide-binding oligomerization domain-containing protein 2 (Homo sapiens, UniProt Q9HC29). Nature of the assay: inhibition of NOD2 signaling – set 2, SAR follow-up (AID 2475). The class given is functional.
T1 sequence (Q9HC29 whole entry, the tested form may be a part): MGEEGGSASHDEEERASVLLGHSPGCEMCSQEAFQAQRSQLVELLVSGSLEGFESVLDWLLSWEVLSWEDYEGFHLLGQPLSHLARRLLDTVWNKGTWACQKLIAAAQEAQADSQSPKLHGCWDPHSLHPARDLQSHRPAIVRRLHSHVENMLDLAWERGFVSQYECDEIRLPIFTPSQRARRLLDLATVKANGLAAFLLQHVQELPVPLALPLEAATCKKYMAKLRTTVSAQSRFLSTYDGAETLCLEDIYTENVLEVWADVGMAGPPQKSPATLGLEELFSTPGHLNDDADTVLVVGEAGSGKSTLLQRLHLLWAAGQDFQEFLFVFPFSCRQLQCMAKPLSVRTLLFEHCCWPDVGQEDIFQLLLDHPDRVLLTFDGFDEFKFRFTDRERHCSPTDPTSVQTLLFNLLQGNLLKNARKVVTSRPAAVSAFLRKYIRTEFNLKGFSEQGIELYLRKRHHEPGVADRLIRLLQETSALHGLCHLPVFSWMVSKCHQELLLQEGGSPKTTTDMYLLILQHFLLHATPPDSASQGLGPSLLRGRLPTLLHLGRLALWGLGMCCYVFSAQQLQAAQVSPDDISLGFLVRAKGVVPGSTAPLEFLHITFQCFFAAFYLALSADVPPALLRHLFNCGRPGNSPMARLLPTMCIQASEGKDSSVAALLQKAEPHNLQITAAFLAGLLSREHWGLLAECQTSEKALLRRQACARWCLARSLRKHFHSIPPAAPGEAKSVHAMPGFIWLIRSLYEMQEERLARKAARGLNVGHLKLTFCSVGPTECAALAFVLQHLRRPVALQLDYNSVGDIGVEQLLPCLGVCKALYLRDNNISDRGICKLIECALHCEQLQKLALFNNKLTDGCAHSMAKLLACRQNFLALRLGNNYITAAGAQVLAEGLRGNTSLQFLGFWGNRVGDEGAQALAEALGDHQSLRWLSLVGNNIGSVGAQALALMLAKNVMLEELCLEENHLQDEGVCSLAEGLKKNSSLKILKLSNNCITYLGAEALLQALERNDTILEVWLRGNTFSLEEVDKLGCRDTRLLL
For assay [5], the target named is T2, Tumor necrosis factor (Homo sapiens, UniProt P01375). Nature of the assay: analog potency on TNFa NF-kB signaling – cell-based, revised, SAR follow-up (AID 2337). Type of assay: functional.
T2 sequence (P01375 whole entry): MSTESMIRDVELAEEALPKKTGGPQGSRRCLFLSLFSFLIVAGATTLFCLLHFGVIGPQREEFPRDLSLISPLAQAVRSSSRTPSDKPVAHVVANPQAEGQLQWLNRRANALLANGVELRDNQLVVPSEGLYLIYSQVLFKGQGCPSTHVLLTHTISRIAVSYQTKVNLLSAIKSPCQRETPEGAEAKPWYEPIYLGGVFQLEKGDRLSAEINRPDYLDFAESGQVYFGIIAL
For assay [6], the system named is HEK293. Description: SAR analysis of compounds that are cytotoxic to HEK293 - Set 2. [Related pubchem assays (depositor defined):AID1575, AID1578, AID1849, AID2001, AID2333, AID2334, AID2335, AID2337, AID2800]. The class given is functional, cell-based. The note with it: Homo sapiens.
Assay [7] has as its target T2, Tumor necrosis factor. Nature of the assay: analog potency on TNFa NF-kB signaling – cell-based, set 3, SAR follow-up (AID 2801). Type of assay: functional.
Assay [8] concerns HEK293. Description: SAR analysis of compounds that are cytotoxic to HEK293 - Set 3. [Related pubchem assays (depositor defined):AID1575, AID1578, AID1848, AID1849, AID2001, AID2333, AID2334, AID2335, AID2337, AID2469]. Type of assay: functional, cell-based. The settings on record: Homo sapiens.
In assay [9] the target is T1, Nucleotide-binding oligomerization domain-containing protein 2. Description: PubChem AID 2334. The class given is functional.
The target is the same in assay [10]. Nature of the assay: inhibition of MDP-driven NOD2 NF-kB reporter – cell-based, set 3, SAR follow-up (AID 2799). The class given is functional.
Assay [11] has as its system HEK293. Description: cells. The settings on record: Homo sapiens.
Assay [12] addresses T3, Delta-type opioid receptor (Homo sapiens, UniProt P41143). Nature of the assay: HTS Image-Based Screen for Antagonists of the DOR Receptor. [Related pubchem assays (depositor defined):AID1777, AID1785, AID1786, AID2133]. Type of assay: functional.
For assay [13], the target named is T4, Mu-type opioid receptor (Homo sapiens, UniProt P35372). Nature of the assay: HTS Image-Based Screen for Agonists of the MOR Receptor. [Related pubchem assays (depositor defined):AID1777, AID1785, AID1786, AID2133]. The class given is functional.
T4 sequence (P35372 whole entry): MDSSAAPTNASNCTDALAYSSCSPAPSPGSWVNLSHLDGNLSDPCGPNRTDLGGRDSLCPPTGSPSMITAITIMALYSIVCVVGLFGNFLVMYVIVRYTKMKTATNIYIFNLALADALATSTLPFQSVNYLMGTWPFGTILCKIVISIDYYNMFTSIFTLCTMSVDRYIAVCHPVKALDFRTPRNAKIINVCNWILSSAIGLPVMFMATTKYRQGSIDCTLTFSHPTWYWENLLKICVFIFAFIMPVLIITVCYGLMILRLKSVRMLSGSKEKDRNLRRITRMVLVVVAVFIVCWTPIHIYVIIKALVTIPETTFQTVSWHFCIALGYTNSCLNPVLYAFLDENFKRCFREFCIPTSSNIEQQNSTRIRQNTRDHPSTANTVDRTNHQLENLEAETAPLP
Assay [14] has as its target T3, Delta-type opioid receptor. Nature of the assay: HTS Image-Based Screen for Agonists of the DOR Receptor. [Related pubchem assays (depositor defined):AID1777, AID1786, AID2133]. The class given is functional.
Assay [15] deals with T5, Kappa-type opioid receptor (Homo sapiens, UniProt P41145). The class given is functional.
T5 sequence (P41145 whole entry): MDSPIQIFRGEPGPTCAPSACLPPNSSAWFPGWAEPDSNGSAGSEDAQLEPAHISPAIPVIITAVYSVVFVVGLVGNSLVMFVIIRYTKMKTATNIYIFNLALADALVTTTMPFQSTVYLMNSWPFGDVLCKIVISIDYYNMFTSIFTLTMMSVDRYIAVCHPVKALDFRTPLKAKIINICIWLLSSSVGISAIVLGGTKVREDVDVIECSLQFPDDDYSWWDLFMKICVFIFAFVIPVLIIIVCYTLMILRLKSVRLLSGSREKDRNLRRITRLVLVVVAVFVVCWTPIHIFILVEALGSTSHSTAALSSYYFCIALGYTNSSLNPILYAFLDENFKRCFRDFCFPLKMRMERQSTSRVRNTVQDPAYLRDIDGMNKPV
A further assay concerns the target Beta-galactosidase (Escherichia coli, UniProt Q8VNN2). The class given is functional.
The target in assay [16] is T5, Kappa-type opioid receptor. The class given is functional. This is another data set of the same source.
Assay [17] has as its target T5, Kappa-type opioid receptor. Description: kappa opioid receptor activation by imaging – image-based, set 3, SAR follow-up (AID 488833). Type of assay: functional.
For assay [18], the target named is T4, Mu-type opioid receptor. Description: SAR Analysis of Agonists of the MOR Receptor using an Image-Based Assay - Set 3. [Related pubchem assays (depositor defined):AID1777, AID1785, AID1786, AID1966, AID2133, AID2136, AID2284, AID2285, AID2352]. Type of assay: functional.
The target of assay [19] is T3, Delta-type opioid receptor. Description: SAR Analysis of Agonists of the DOR Receptor using an Image-Based Assay - Set 3. [Related pubchem assays (depositor defined):AID1777, AID1786]. Type of assay: functional.
For assay [20], the target named is T5, Kappa-type opioid receptor. Description: SAR analysis of small molecule agonists of the kappa opioid receptor via a luminescent beta-arrestin assay - Set 3. [Related pubchem assays (depositor defined):AID1777, AID1785, AID1786, AID1966, AID2133, AID2136, AID2284, AID2500]. Type of assay: functional.
Assay [21] deals with T6, Dual specificity protein phosphatase 3 (Homo sapiens, UniProt P51452). Description: VHR1 phosphatase inhibitors, primary screen, biochemical, absorbance, uHTS (AID 1654).
T6 sequence (P51452 whole entry): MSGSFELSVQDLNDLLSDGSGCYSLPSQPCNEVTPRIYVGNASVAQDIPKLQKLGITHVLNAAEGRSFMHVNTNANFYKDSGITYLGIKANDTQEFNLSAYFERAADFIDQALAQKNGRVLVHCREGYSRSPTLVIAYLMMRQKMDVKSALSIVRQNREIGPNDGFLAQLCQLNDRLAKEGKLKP
Assay [22] deals with T7, SUMO-activating enzyme (Homo sapiens, UniProt Q9UBT2). Description: blockers of UBC9-mediated SUMO conjugation – biochemical, AlphaScreen, SUMOylation inhibitor project, confirmation (AID 2018). The class given is functional.
T7 sequence (Q9UBE0 whole entry): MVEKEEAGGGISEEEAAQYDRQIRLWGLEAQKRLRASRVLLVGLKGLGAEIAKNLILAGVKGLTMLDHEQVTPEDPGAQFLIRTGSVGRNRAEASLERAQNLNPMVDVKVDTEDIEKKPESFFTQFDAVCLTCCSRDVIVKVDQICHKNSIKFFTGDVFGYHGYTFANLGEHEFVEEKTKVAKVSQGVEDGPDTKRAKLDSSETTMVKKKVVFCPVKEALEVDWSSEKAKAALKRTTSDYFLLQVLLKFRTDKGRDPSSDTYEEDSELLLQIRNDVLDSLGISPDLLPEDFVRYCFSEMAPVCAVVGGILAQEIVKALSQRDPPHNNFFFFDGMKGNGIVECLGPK
T7 sequence (Q9UBT2 whole entry): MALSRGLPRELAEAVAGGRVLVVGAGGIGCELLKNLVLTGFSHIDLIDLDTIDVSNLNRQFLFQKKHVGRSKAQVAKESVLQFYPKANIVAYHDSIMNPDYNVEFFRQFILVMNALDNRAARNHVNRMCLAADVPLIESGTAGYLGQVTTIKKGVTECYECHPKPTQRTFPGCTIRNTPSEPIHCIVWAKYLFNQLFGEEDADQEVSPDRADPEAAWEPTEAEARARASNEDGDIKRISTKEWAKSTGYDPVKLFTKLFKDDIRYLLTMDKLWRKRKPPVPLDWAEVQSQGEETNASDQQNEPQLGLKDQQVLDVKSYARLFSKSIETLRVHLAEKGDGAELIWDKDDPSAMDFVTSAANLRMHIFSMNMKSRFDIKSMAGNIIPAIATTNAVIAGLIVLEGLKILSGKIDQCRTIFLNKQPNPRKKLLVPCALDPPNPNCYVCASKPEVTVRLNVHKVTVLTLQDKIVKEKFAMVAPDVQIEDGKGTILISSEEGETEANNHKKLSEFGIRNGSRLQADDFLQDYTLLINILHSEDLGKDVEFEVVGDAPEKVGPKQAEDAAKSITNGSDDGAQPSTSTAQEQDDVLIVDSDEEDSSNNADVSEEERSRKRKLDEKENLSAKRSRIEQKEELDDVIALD
Assay [23] deals with T7, SUMO-activating enzyme. Nature of the assay: blockers of SAE1/SAE2–UBC9 SUMO transfer – biochemical, HTRF, uHTS, primary screen (AID 2006). Type of assay: protein-complex assay.
Assay [24] concerns the target T6, Dual specificity protein phosphatase 3. Description: VHR1 phosphatase inhibitors, biochemical (AID 1878).
The target of assay [25] is T8, Dual specificity protein phosphatase 6 (Rattus norvegicus, UniProt Q64346).
T8 sequence (Q64346 whole entry): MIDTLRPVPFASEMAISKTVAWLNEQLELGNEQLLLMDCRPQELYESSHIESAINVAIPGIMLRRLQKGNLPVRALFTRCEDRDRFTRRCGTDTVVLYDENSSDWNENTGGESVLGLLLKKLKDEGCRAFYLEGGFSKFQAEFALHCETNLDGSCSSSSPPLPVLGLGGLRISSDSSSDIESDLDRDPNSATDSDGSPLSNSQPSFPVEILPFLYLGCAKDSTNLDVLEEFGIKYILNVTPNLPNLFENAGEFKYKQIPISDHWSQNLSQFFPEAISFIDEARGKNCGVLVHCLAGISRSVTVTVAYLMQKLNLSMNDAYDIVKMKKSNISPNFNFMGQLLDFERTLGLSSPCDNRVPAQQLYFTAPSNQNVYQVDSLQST
Description: inhibition of rat DUSP6 enzyme activity – biochemical, in vitro, primary screen (AID 425).

The target in assay [26] is 26S proteasome non-ATPase regulatory subunit 14 (Homo sapiens, UniProt O00487). Nature of the assay: inhibition of proteasome subunit RPN11 – biochemical, fluorescence polarization, uHTS hits, confirmation (AID 602368). Type of assay: functional.
Chain of 26S proteasome non-ATPase regulatory subunit 14 (O00487 whole entry): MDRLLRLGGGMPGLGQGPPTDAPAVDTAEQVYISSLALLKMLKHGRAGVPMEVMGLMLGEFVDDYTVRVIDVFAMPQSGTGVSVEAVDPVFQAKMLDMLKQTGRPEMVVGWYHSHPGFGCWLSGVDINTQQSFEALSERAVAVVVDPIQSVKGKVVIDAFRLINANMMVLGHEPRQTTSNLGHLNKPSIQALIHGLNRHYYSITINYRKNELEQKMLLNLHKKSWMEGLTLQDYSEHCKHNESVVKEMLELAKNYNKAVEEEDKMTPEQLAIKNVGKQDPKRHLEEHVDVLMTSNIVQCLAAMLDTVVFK
Assay [27] has as its target 72 kDa type IV collagenase (Homo sapiens, UniProt P08253). Description: Dose Response validation of uHTS RPN11 inhibitor hits using a MMP-2 Fluorescence assay. Type of assay: functional.
In the next assay the target is Prothrombin (Bos taurus, UniProt P00735). Description: thrombin protease inhibitors – biochemical, fluorescence polarization, uHTS hits, dose response (AID 602369). Type of assay: functional.
The target in assay [28] is T9, Small ubiquitin-related modifier 1 (Homo sapiens, UniProt P63165). Description: SUMO1 protein interaction blockers, potency – biochemical, fluorescence polarization, uHTS hits, dose response (AID 624382). Type of assay: functional. The settings on record: read-out: IC50_Mean.
T9 sequence (P63165 whole entry): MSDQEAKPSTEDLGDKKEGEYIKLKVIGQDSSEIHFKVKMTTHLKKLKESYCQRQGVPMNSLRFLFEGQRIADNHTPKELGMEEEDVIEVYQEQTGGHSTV
The target of assay [29] is T9, Small ubiquitin-related modifier 1. Nature of the assay: SUMO1 protein-protein binding blockers, potency – biochemical, FRET, dose response (AID 624383). Type of assay: functional. The settings on record: read-out: IC50_Mean.
Assay [30] can be described thus: Luminescence Cell-Based Dose Confirmation HTS to Identify Activators of 5'UTR Stem-Loop Driven Alpha-Synuclein mRNA Translation in H4 Neuroglioblastoma Cells. [Related pubchem assays: 1829 (Project Summary), 1814 (Primary HTS)]. The class given is functional.
Assay [31] in a line: Luminescence Cell-Based Dose Response HTS to Identify Activators of Luciferase Translation or Activity in H4 […] Cells. [Related pubchem assays: 1829 (Project Summary), 1814 (Primary HTS)]. Type of assay: functional.
For assay [32], the target named is T10, Tyrosine-protein phosphatase non-receptor type 7 (Homo sapiens, UniProt P35236).
T10 sequence (P35236 whole entry): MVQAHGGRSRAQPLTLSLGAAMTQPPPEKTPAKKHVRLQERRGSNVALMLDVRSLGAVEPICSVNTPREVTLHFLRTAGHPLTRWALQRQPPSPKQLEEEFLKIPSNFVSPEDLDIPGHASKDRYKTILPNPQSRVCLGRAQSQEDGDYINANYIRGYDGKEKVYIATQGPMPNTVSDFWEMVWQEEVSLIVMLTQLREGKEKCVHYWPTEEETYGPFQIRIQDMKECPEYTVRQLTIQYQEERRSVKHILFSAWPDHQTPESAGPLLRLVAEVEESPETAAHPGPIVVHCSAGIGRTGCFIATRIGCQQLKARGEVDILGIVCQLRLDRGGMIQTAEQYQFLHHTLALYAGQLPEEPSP
Type of assay: functional.

The subject of a further assay is H4. Nature of the assay: Luminescence Cell-Based Dose Response HTS to Identify Activators of 5'UTR Stem-Loop Driven Prion Protein mRNA Translation in H4 Neuroglioblastoma Cells. [Related pubchem assays: 1829 (Project Summary), 1814 (Primary HTS)]. The settings on record: Homo sapiens. Type of assay: functional.
The target in assay [33] is T11, Tyrosine-protein phosphatase non-receptor type 22 (Homo sapiens, UniProt Q9Y2R2). The class given is functional.
T11 sequence (Q9Y2R2 whole entry): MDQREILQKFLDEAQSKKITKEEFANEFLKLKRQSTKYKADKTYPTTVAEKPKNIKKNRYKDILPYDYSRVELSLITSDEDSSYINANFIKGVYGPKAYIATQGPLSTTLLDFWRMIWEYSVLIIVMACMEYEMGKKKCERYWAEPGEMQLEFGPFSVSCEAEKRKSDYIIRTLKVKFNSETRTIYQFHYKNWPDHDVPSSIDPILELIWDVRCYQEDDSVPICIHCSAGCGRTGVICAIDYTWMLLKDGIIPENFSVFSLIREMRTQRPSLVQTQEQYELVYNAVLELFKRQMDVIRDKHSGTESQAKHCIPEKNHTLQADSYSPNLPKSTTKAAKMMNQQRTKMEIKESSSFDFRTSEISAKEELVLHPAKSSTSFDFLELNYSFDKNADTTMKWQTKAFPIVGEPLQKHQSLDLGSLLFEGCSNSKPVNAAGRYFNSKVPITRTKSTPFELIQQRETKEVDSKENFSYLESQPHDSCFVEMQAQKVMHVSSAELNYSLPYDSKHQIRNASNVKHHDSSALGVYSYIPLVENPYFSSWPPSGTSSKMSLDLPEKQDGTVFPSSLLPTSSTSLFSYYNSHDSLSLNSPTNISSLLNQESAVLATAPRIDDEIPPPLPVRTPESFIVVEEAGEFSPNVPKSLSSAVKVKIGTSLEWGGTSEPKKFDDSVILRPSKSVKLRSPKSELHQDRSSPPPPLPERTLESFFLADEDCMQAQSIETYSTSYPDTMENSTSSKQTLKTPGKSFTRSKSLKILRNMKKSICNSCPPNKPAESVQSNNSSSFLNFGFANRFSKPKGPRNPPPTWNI
Assay [34] addresses T11, Tyrosine-protein phosphatase non-receptor type 22. The class given is functional. The source holds these as a separate data set.

The source made the active and inactive calls. Where only a bound is given, the exact number is not on record here.

T3 sequence (P41143 whole entry): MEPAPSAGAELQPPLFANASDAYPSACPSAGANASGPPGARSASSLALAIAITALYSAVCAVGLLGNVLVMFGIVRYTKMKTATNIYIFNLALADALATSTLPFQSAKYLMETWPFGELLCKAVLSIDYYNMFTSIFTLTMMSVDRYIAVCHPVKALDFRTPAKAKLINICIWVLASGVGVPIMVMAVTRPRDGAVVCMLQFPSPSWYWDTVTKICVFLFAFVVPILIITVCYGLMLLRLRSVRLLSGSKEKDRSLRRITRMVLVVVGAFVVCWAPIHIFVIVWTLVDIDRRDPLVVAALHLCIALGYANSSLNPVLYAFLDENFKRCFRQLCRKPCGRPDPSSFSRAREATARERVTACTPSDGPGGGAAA

Turning to `Cc1ccc(S(=O)(=O)n2c(N)nc3ccccc32)cc1`, the IC50 (in the assay on HEK293 [1]; with HEK293 [2]; in the assay with HEK293 [3]; in [4]; on Tumor necrosis factor [5]; with HEK293 [6]) was > 20 µM (inactive) in each case. Also, the IC50 (on Tumor necrosis factor [7]; in the assay on HEK293 [8]; in [9]; in assay [10]; in the assay on HEK293 [11]) was > 20 µM (inactive) throughout.

Regarding `Cc1nc(-c2ccccn2)[nH]c(=S)c1Cl`, the IC50 was > 32 µM (inactive) in assay [12], 20.3 µM (inactive) in [15] and more than 32 µM in assay [16]. The EC50 on Mu-type opioid receptor [13] is > 32 µM (inactive); in assay [14] it was > 32 µM (inactive); at Beta-galactosidase, > 31.5 µM (inactive).

For the compound `FC(F)(F)c1ccc(CSc2nnc(-c3ccccn3)n2Cc2cccs2)cc1`, the EC50 in assay [17] is 0.621 µM (active); on Mu-type opioid receptor [18] it was > 32 µM (inactive); in assay [19], > 32 µM (inactive); in assay [20] it was 1.23 µM (active).

Consider `O=C(CSc1nnc(SCc2ccc(Cl)cc2)s1)N/N=C/c1c[nH]c2ccccc12`, for which the IC50 in [21] was 16.2 µM (active); on SUMO-activating enzyme [22], 1.54 µM (active); at SUMO-activating enzyme [23], 48.3 µM (active); in [24], 3.82 µM (active); in assay [25] it was 76.5 µM (active); in [26], 9.99 µM (active). The IC50 was > 100 µM (inactive) in [27], 82.5 µM (active) on Prothrombin, > 66.6 µM (inactive) in assay [28] and 2.02 µM (active) in [29].

As to `O=C1C2C(C(=O)N1/N=C/c1cccc([N+](=O)[O-])c1)C1C=CC2C12CC2` (configuration not stated), the EC50 in [30] was 15.4 µM (active); in [31], 7.44 µM (active); in the assay with H4, 87.7 µM (active). Besides, the IC50 in assay [32], in [33] and in [34] was > 79.4 µM (inactive) in each case.

(Values after ChEMBL document CHEMBL1201862, “PubChem BioAssay data set” (2004).)
